Experiments:
HCV Con 1b (Replicon) = HCV Con 1b (Replicon) RNA end-point; format: cell-based, Hepatitis C Virus; details: HCV Con 1b replicon, RNA end-point; for CC50: read-out: TC50 (the source's name)
Description: The reduction in HCV was determined with two assays using viral RNA endpoints. […] This cell line expresses a subgenomic section of the HCV genome containing NS2a, NS2b, NS3a, NS3b, NS4a, NS4b, NS5a and NS5b.

HCV Con1b (Replicon) = HCV Con1b (Replicon) Luciferase end-point; format: cell-based, Hepatitis C Virus; details: for CC50: read-out: TC50 (the source's name)
WNV = WNV antiviral assay; format: cell-based, West Nile Virus; details: for CC50: read-out: TC50 (the source's name)
Description: (§1) The use of N-(2,3-dihydro-1H-inden-5-yl)-2-(4-oxo-3-phenyl-3,4-dihydroquinazolin-2-yl)thio) acetamide, a compound employed according to the present disclosure, for treating West Nile Virus has been disclosed. For example, please see Chung et al. A Cell Based Assay for the Identification of Lead Compounds with Anti-Viral Activity Against West Nile Virus, Probe Reports from the NIH Molecular Libraries Program[Internet]. Bethesda (Md.): National Center for Biotechnology Information (US); 2010-2010 Feb. 27 [updated 2010 Oct. 4], PMID: 21433390 [PubMed].

JEV = JEV cell based virus CPE reduction assay; parameters: species or system Japanese Encephalitis Virus
Description: as §1

Row | SMILES | IC50 (HCV Con1b (Replicon)) | CC50 (HCV Con1b (Replicon)) | IC50 (WNV) | CC50 (WNV) | further results
1 | O=C(CSc1nc2ccccc2c(=O)n1-c1ccc(F)c(F)c1)Nc1cccc2c1CCC2 [Example C26, 2-[3-(3,4-difluorophenyl)-4-oxo(3-hydroquinazolin-2-ylthio)]-N-indan-4-ylacetamide] | < 1 µM | ≥ 100 µM |  |  | IC50 (HCV Con 1b (Replicon)): < 1 µM; CC50 (HCV Con 1b (Replicon)): 50 to 100 µM
2 | O=C(CSc1nc2ccccc2c(=O)n1-c1cc(F)cc(F)c1)Nc1ccc2c(c1)CCC2 [Example C38, 2-[3-(3,5-difluorophenyl)-4-oxo(3-hydroquinazolin-2-ylthio)]-N-indan-5-ylacetamide] |  |  | 5 to 25 µM | ≥ 100 µM | 
3 | Cc1cc(-n2c(SCC(=O)Nc3ccc4c(c3)CCC4)nc3ccccc3c2=O)ccc1Cl [Example C33, 2-[3-(4-chloro-3-methylphenyl)-4-oxo(3-hydroquinazolin-2-ylthio)]-N-indan-5-ylacetamide] |  |  | 1 to 5 µM | 50 to 100 µM | 
4 | O=C(CSc1nc2ccccc2c(=O)n1-c1ccc(Cl)c(Cl)c1)Nc1ccc2c(c1)OCO2 [Example C19, N-(2H-benzo[d]1,3-dioxolen-5-yl)-2-[3-(3,4-dichlorophenyl)-4-oxo(3-hydroquinazolin-2-ylthio)]acetamide] | 1 to 5 µM | ≥ 100 µM |  |  | 
5 | O=C(CSc1nc2ccccc2c(=O)n1-c1ccccc1F)Nc1ccc2c(c1)CCC2 [Example C11, 2-[3-(2-fluorophenyl)-4-oxo(3-hydroquinazolin-2-ylthio)]-N-indan-5-ylacetamide] |  |  | 5 to 25 µM | ≥ 100 µM | 
6 | O=C(CSc1nc2ccccc2c(=O)n1-c1cc(F)c(F)cn1)Nc1ccc2c(c1)CCC2 [Example C43, 2-[3-(4,5-difluoro(2-pyridyl))-4-oxo(3-hydroquinazolin-2-ylthio)]-N-indan-5-ylacetamide] |  |  | 5 to 25 µM | ≥ 100 µM | 
7 | O=C(CSc1nc2ccccc2c(=O)n1-c1ccc(F)c(F)c1)Nc1ccc2c(c1)CCC2 [Example C27, 2-[3-(3,4-difluorophenyl)-4-oxo(3-hydroquinazolin-2-ylthio)]-N-indan-5-ylacetamide] | 5 to 25 µM | ≥ 100 µM | 5 to 25 µM | ≥ 100 µM | 
8 | O=C(CSc1nc2ccccc2c(=O)n1-c1c(Cl)cccc1Cl)Nc1ccc2c(c1)CCC2 [Example C40, 2-[3-(2,6-dichlorophenyl)-4-oxo(3-hydroquinazolin-2-ylthio)]-N-indan-5-ylacetamide] |  |  | 5 to 25 µM | ≥ 100 µM | 
9 | O=C(CSc1nc2ccccc2c(=O)n1-c1cc(F)c(F)c(F)c1)Nc1ccc2c(c1)CCC2 [Example C35, N-indan-5-yl-2-[4-oxo-3-(3,4,5-trifluorophenyl)(3-hydroquinazolin-2-ylthio)]acetamide] |  |  | 5 to 25 µM | ≥ 100 µM | 
10 | O=C(CSc1nc2ccccc2c(=O)n1-c1ccc(Cl)c(Cl)c1)Nc1cccc2c1CCC2 [Example C18, 2-[3-(3,4-dichlorophenyl)-4-oxo(3-hydroquinazolin-2-ylthio)]-N-indan-4-ylacetamide] | 5 to 25 µM | 50 to 100 µM |  |  | 
11 | O=C(CCSc1nc2ccccc2c(=O)n1-c1cc(F)c(F)c(F)c1)Nc1ccc2c(c1)CCC2 [Example C25, N-indan-5-yl-3-[4-oxo-3-(3,4,5-trifluorophenyl)(3-hydroquinazolin-2-ylthio)]propanamide] |  |  |  |  | IC50 (JEV): 5 to 25 µM; CC50 (JEV; read-out: TC50 (the source's name)): ≥ 100 µM
12 | O=C(CSc1nc2ccccc2c(=O)n1-c1ccccc1)Nc1ccc2c(c1)CCC2 [Example C32, N-indan-5-yl-2-(4-oxo-3-phenyl(3-hydroquinazolin-2-ylthio))acetamide] |  |  | 5 to 25 µM | ≥ 100 µM | 
13 | O=C(CSc1nc2ccccc2c(=O)n1-c1ccc(F)c(Cl)c1)Nc1ccc2c(c1)OCO2 [Example C23, N-(2H-benzo[3,4-d]1,3-dioxolan-5-yl)-2-[3-(3-chloro-4-fluorophenyl)-4-oxo(3-hydroquinazolin-2-ylthio)]acetamide] | 5 to 25 µM | ≥ 100 µM |  |  | 
14 | Cc1cc(-n2c(SCC(=O)Nc3ccc4c(c3)CCC4)nc3ccccc3c2=O)ccc1F [Example C34, 2-[3-(4-fluoro-3-methylphenyl)-4-oxo(3-hydroquinazolin-2-ylthio)]-N-indan-5-ylacetamide] |  |  | 5 to 25 µM | ≥ 100 µM | 
15 | O=C(CSc1nc2ccccc2c(=O)n1-c1ccc(Cl)c(Cl)c1)Nc1nc(-c2ccccc2)cs1 [Example C45, 2-[3-(3,4-dichlorophenyl)-4-oxo(3-hydroquinazolin-2-ylthio)]-N-(4-phenyl(1,3-thiazol-2-yl))acetamide] | < 1 µM | ≥ 100 µM |  |  | IC50 (HCV Con 1b (Replicon)): < 1 µM; CC50 (HCV Con 1b (Replicon)): 50 to 100 µM
16 | O=C(CSc1nc2ccccc2c(=O)n1-c1ccc(Cl)c(Cl)c1)Nc1ccc2scnc2c1 [Example C46, N-benzothiazol-5-yl-2-[3-(3,4-dichlorophenyl)-4-oxo(3-hydroquinazolin-2-ylthio)]acetamide] | 1 to 5 µM | ≥ 100 µM |  |  | 

Row | SMILES | IC50 (HCV Con1b (Replicon)) | CC50 (HCV Con1b (Replicon)) | IC50 (WNV) | CC50 (WNV) | further results
17 | O=C(CSc1nc2cccc(F)c2c(=O)n1-c1ccc(Cl)c(Cl)c1)Nc1ccc2c(c1)CCC2 [Example C31] | < 1 µM | 10 to 50 µM | 5 to 25 µM | ≥ 100 µM | 
18 | O=C(CSc1nc2ccccc2c(=O)n1-c1ccc(F)c(Cl)c1)Nc1cccc2c1CCC2 [Example C22, 2-[3-(3-chloro-4-fluorophenyl)-4-oxo(3-hydroquinazolin-2-ylthio)]-N-indan-4-ylacetamide] | 1 to 5 µM | 10 to 50 µM |  |  | 
19 | O=C(CSc1nc2cccc(F)c2c(=O)n1-c1ccccc1)NC1CCCc2ccccc21 (stereo not shown) [Example C28, 2-(5-fluoro-4-oxo-3-phenyl(3-hydroquinazolin-2-ylthio))-N-(1,2,3,4-tetrahydronaphthyl)acetamide] | 5 to 25 µM | ≥ 100 µM |  |  | 
20 | O=C(CSc1nc2cccc(F)c2c(=O)n1-c1cc(F)c(F)c(F)c1)Nc1ccc2c(c1)CCC2 [Example C30, 2-[5-fluoro-4-oxo-3-(3,4,5-trifluorophenyl)(3-hydroquinazolin-2-ylthio)]-N-indan-5-ylacetamide] | 1 to 5 µM | 50 to 100 µM |  |  | 
21 | Cc1ccc(-n2c(SCC(=O)Nc3ccc4c(c3)CCC4)nc3ccccc3c2=O)cc1Br [Example C36, 2-[3-(3-bromo-4-methylphenyl)-4-oxo(3-hydroquinazolin-2-ylthio)]-N-indan-5-ylacetamide] |  |  | 5 to 25 µM | ≥ 100 µM | 
22 | O=C(CSc1nc2c(F)cccc2c(=O)n1-c1cc(Cl)cc(Cl)c1)Nc1ccc2c(c1)CCC2 [Example C39, 2-[3-(3,5-dichlorophenyl)-8-fluoro-4-oxo(3-hydroquinazolin-2-ylthio)]-N-indan-5-ylacetamide] |  |  | 5 to 25 µM | 50 to 100 µM | 
23 | O=C(CSc1nc2cccc(F)c2c(=O)n1-c1ccc(Cl)c(F)c1)Nc1ccc2c(c1)CCC2 [Example C29, 2-[3-(4-chloro-3-fluorophenyl)-5-fluoro-4-oxo(3-hydroquinazolin-2-ylthio)]-N-indan-5-ylacetamide] | 1 to 5 µM | ≥ 100 µM |  |  | 
24 | O=C(CSc1nc2c(F)cccc2c(=O)n1-c1ccccc1)Nc1ccc2c(c1)CCC2 [Example C42, 2-(8-fluoro-4-oxo-3-phenyl(3-hydroquinazolin-2-ylthio))-N-indan-5-ylacetamide] |  |  | 5 to 25 µM | ≥ 100 µM | 
25 | O=C(CSc1nc2ccccc2c(=O)n1-c1ccc(Cl)c(Br)c1)Nc1ccc2c(c1)CCC2 [Example C41, 2-[3-(3-bromo-4-chlorophenyl)-4-oxo(3-hydroquinazolin-2-ylthio)]-N-indan-5-ylacetamide] |  |  | 5 to 25 µM | ≥ 100 µM | 
26 | O=C(CSc1nc2c(F)cccc2c(=O)n1-c1ccc(Cl)c(Cl)c1)Nc1ccc2c(c1)CCC2 [Example C37, 2-[3-(3,4-dichlorophenyl)-8-fluoro-4-oxo(3-hydroquinazolin-2-ylthio)]-N-indan-5-ylacetamide] |  |  | 5 to 25 µM | 10 to 50 µM | 
27 | O=C(CSc1nc2ccccc2c(=O)n1-c1ccc(F)c(Cl)c1)Nc1ccc2c(c1)CCC2 [Example C12, 2-[3-(3-chloro-4-fluorophenyl)-4-oxo(3-hydroquinazolin-2-ylthio)]-N-indan-5-ylacetamide] | 1 to 5 µM | ≥ 100 µM | 5 to 25 µM | ≥ 100 µM | IC50 (HCV Con 1b (Replicon)): < 1 µM; CC50 (HCV Con 1b (Replicon)): 50 to 100 µM
28 | O=C(CSc1nc2ccccc2c(=O)n1-c1ccc(Cl)c(Cl)c1)Nc1ccc2c(c1)CCC2 [Example C13, 2-[3-(3,4-dichlorophenyl)-4-oxo(3-hydroquinazolin-2-ylthio)]-N-indan-5-ylacetamide] | 1 to 5 µM | 50 to 100 µM | 5 to 25 µM | ≥ 100 µM | 
29 | O=C(CCSc1nc2ccccc2c(=O)n1-c1ccc(F)c(Cl)c1)Nc1ccc2c(c1)CCC2 [Example C21, 3-[3-(3-chloro-4-fluorophenyl)-4-oxo(3-hydroquinazolin-2-ylthio)]-N-indan-5-ylpropanamide] | 5 to 25 µM | 10 to 50 µM |  |  | 
30 | O=C(CSc1nc2ccccc2c(=O)n1-c1cc(Cl)cc(Cl)c1)Nc1ccc2c(c1)CCC2 [Example C20, 2-[3-(3,5-dichlorophenyl)-4-oxo(3-hydroquinazolin-2-ylthio)]-N-indan-5-ylacetamide] |  |  | 1 to 5 µM | ≥ 100 µM | 
31 | Cc1cccc2c(=O)n(-c3ccccc3)c(SCC(=O)Nc3ccc4c(c3)CCC4)nc12 [Example C16, N-indan-5-yl-2-(8-methyl-4-oxo-3-phenyl(3-hydroquinazolin-2-ylthio))acetamide] | 1 to 5 µM | 10 to 50 µM |  |  | 
